“Also recorded” adds a separate entry of the source.

A word on the Emax: it is the maximal effect, on the per cent scale that the assay sets. The term EC50 denotes the concentration giving half of the maximal effect.

The test system of data set [1] is SRE promoter luciferase (SRE-luc) in HepG2 cells. The experiment in a line: SRE-luc reporter in HepG2 cells. Format: cell-based, human. The note with it: for SRE-luc response: HepG2, normalized to T0. An excerpt: Our phenotypic high throughput screen (HTS) approach to identify nonlipogenic ABCA1 Inducers (NLAI) originally used counterscreening with a SREBP1c-luciferase reporter (linked to the SREBF1 gene promoter) in human hepatocarcinoma HepG2 cells.[81] Unwanted lipogenesis is mediated by LXR agonists via direct transcriptional activation and indirectly by the effects of SREBP1c.[57] [109] SREBP1c enhances transcription of genes required for synthesis of fatty acids and TG and as the dominant isoform in liver is associated most closely with lipogenesis and TG elevation.[109] […] Binding of SREBP1c to the sterol response element (SRE) induces transcription of lipogenic genes associated with elevated TG. To better model the lipogenic axis in hepatocytes, we use HepG2 cells stably transfected with a luciferase reporter downstream of a SRE promoter (SRE-luc), activation of which requires SREBP1c maturation.
HepG2 cells were cotransfected with SRE (LDLR)-NlucP SuperPiggyBac Transposon and a separate Transposase plasmid (System Biosciences). Cells were expanded for multiple passages followed by selection with puromycin (1ug/ml). Stable cells constitutively express GFP allowed for FACS enrichment and/or cell cloning. Initially, stable pools were compared to low expressing and high expressing enriched pools. The optimal pool was selected based on assay performance (Z’) and was grown and maintained as above, with the addition of 1.0 μg/mL of puromycin biweekly.

A further data set concerns LXR. The experiment in a line: CRT signature categorization, heat map of response at 1 μM. The following applies: signatures of Table 1. Format: biochemical. An excerpt: With the knowledge that corepressors bind to the apo-receptor; whereas coactivator binding requires a ligand-induced conformational change, we can categorize all ligands using their CRT profiles: ligands induce 3 conformations with CoR (destabilizing D, stabilizing S, neutral N) and only 2 conformations with CoA (stabilizing S, neutral N) (Table 1).
To determine which LXR ligands fit with these theoretical CRT signatures, concentration-response curves were interpolated to measure normalized response at 1 μM ligand concentration and plotted as a heat map (Figs 9A, S8).
The CRT signatures of the three agonist and three antagonist classifications were modelled in the same heat map using signatures defined in Table 1 and the measured responses to the real LXR ligands in our study.

Data set [2] deals with T1, LXRβ (Homo sapiens, UniProt P55055).
T1 sequence (P55055 222-460 limits assumed): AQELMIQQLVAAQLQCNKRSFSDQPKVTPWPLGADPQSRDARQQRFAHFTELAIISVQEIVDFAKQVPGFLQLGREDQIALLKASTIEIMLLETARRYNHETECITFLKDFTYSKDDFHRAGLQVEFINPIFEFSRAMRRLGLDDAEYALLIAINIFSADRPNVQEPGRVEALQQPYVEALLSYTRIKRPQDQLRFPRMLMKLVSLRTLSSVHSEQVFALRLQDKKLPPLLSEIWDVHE

The subject of data set [3] is ABCA1, SREBP1c, cholesterol efflux, IL-6 in cell cultures. The following applies: cited from earlier work.
Data set [4] addresses T2, LXRα (Homo sapiens, UniProt Q13133).
T2 sequence (Q13133 209-447 limits assumed): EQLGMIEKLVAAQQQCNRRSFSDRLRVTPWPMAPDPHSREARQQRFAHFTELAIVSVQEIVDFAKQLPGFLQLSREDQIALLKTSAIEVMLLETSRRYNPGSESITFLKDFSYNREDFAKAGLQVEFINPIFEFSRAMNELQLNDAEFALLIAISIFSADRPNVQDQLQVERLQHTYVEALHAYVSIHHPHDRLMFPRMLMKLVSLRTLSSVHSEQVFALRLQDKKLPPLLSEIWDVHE
The experiment in a line: Corepressor (NCOR2, SMRT2) binding CRT, LXRα. The note with it: absence of coactivator.

Data set [5] addresses T1, LXRβ. The experiment in a line: Corepressor (NCOR2, SMRT2) binding CRT, LXRβ. The following applies: absence of coactivator.
A further data set has as its system E3/4FAD mice. The following applies: cited from earlier work.
In data set [6] the target is T2, LXRα. The note with it: for SRC-1 recruitment to LXRα, efficacy relative to T0: ligand alone, normalized to T0 (100%).
Data set [7] has as its target T2, LXRα.
In data set [8] the test system is high-fat diet (HFD) mouse model. The following applies: cited from earlier work.
The subject of data set [9] is ABCA1-promoter luciferase in CCF-STTG1 cells. The experiment in a line: ABCA1-luc reporter in CCF-STTG1 astrocytoma cells. It counts as cell-based, human. An excerpt:
Astrocytoma CCF-STTG1 cells, stably transfected with an ABCA1-promoter linked to a luciferase response element provide a model for ABCA1 induction in astrocytes.[81] […] Apparent inverse agonist activity in cell-based assays can result from true inverse agonist recruitment of corepressors or from antagonist activity towards endogenous sterol LXR agonists. Although we use serum stripped media, antagonism of endogenous LXR agonists cannot be ruled out.
Low passage CCF-STTG1 cells (20,000 cells/well) were seeded in 96-well plates in media containing charcoal-stripped FBS and incubated at 37 °C and 5% CO2 for 24 hours prior to a 24-hour treatment. All compounds were dissolved in DMSO, and final DMSO concentrations never exceeded 1%. After a 24-hour incubation period, add a volume of ONE-GLO™EX Reagent that is equal to the volume of culture medium in each well and incubate for 3 to 5 minutes on the shaker. The luminescent activity of compounds ([…], 10-fold dilution) was examined using the ONE-GLO™EX assay (Promega). The data was normalized to DMSO. The assays were performed in duplicates for each concentration, and the EC50 values were determined from non-linear regression analysis of the dose-response curve generated in GraphPad Prism 9.

For a further data set, the system named is mice. The following applies: highest dose 30 mg/kg qd; cited from earlier work.
The target in data set [10] is T1, LXRβ. Briefly: Multiplex precision CRT (pCRT), SRC1 and NCoR2, LXRβ. Format: biochemical. Further details: NR-LBD with short coregulator peptides as used in the present work; purchased Thermo Fisher Scientific PV4660. The note with it: SRC1-btn 200 nM, NCoR2-FL 200 nM.
Another data set concerns hamsters. The arrangement: method as in PMID 19318684. The note with it: cited from earlier work.
The subject of another data set is primates. The arrangement: method as in PMID 19318684. The following applies: 50 mg/kg/day p.o., returned to baseline at day 7; cited from earlier work.
The test system of a further data set is participants. Further details: method as in PMID 19398602. The note with it: 300 mg dose; cited from earlier work.
In data set [11] the test system is SREBF1, FAS, and SCD1 in HepG2 cells. Briefly: RT-PCR of lipogenic genes in HepG2 cells. Format: cell-based, human. The note with it: HepG2, 24 hours. The procedure: Owing to the anomalous response in the reporter assay, we measured lipogenic genes, SREBF1, FAS, and SCD1 by RT-PCR in HepG2 cells in response to treatment with the biphenyl sulfones (Figs 5G–I).
HepG2 cells were seeded in 12-well plates and treated with compounds for 24 hours. Following treatment, cells were washed once with PBS and then lysed in 350 μL of RLT buffer (Qiagen). Lysates were immediately frozen at −80 °C until RNA extraction. Total RNA was extracted using RNeasy Plus Mini columns (Qiagen) according to the manufacturer’s instructions. RNA concentration and purity were assessed using the A260/A280 ratio measured on a Synergy Neo2 plate reader (BioTek). For cDNA synthesis, 2 μg of total RNA was reverse transcribed using SuperScript III reverse transcriptase (Invitrogen), oligo(dT)12–18 primers, and dNTP mix, following the manufacturer’s protocol. Quantitative PCR was performed using TaqMan Gene Expression Master Mix (Invitrogen) with 2 μL of cDNA and gene-specific TaqMan probes in a 20 μL reaction volume per well. The following TaqMan assays were used: ABCA1: Hs01059101_m1, SREBF1: Hs01088691_m1, SCD: Hs01682761_m1, FASN: Hs01005622_m1, and HPRT1 (endogenous control): Hs02800695_m1. qPCR was performed on a StepOne Real-Time PCR System (Applied Biosystems), and gene expression was quantified using the ΔΔCt method.

For the next data set, the system named is obese mice on HFD. The following applies: cited from earlier work.
Data set [12] relates to mouse model of non-alcoholic steatohepatitis (NASH). The note with it: cited from earlier work.
The conditions of data set [13]: cited from earlier work.

`COc1ccc(NC2=C(c3ccccc3)C(=O)N(Cc3ccccc3)C2=O)cc1` [GSK3987]: in [1] (Homo sapiens, HepG2, read-out: Maximal efficacy (Emax), SRE activation), the Emax was found to be 150%. Besides, the CRT signature category entry with LXR was “FA (full agonist (FA))”. Also, the “LXR isoform selectivity, SRC-1 recruitment” value at LXRβ [2] (LXRβ versus LXRα) is listed as “weakly selective for LXRβ”. Moreover, in data set [3], the “ABCA1, SREBP1c, cholesterol efflux and IL-6 in cell cultures” value is “concentration-dependent increases in ABCA1, SREBP1c, and cholesterol efflux and concentration-dependent decreases in IL-6”. For the same molecule, on LXRα [4], the “Corepressor (NCOR2 and SMRT2) binding to LXRα, ligand effect” value (shortened to “Corepressor … to LXRα, ligand effect”) is “strong agonist responses”. Moreover, on LXRβ [5], the “Corepressor (NCOR2 and SMRT2) binding to LXRβ, ligand effect” value is “strong agonist responses”.
With `CCOC(=O)c1cc(Cl)cc(NC(=O)c2sc(Cl)cc2S(=O)(=O)N(C)c2ccc(OCC)c(OC)c2)c1` [CL3–3], in the data set with E3/4FAD mice, the “ABCA1 expression, APOE lipidation, AD phenotypes, TG” value was “increased ABCA1 expression, enhanced APOE lipidation and reversed multiple AD phenotypes, without increasing TG”. In addition, the “SRC-1 recruitment to LXRα, efficacy relative to T0” value at LXRα [6] is “partial agonist activity at LXRα”. At LXRα [7], the “Recruitment of coactivator TRAP220 to LXRα” value is reported as “very minimal recruitment”.
Take `CCOC(=O)c1cccc(NC(=O)c2sc(Cl)cc2S(=O)(=O)N(C)c2ccc(OCC)c(OCC)c2)c1` [CL2–57]: in data set [1] (Homo sapiens, HepG2 SRE-luc, read-out: EC50, SRE activation), the EC50 was determined as 2800 nM. Moreover, the “Plasma and hepatic TG levels” value in data set [8] is “attenuated diet-induced increases in plasma and hepatic TG levels”. Besides, the “Recruitment of coactivator TRAP220 to LXRα” value on LXRα [7] is reported as “very minimal recruitment”.
In the case of `CC(C)(O)c1cn(-c2ccc(-c3cccc(S(C)(=O)=O)c3)cc2)c(C(C)(C)c2ccccc2Cl)n1` [XL652], in data set [9] (versus XL041), the “Weaker potency for ABCA1 induction compared to XL041” value is listed as “more than 100 fold”. Moreover, in data set [1], the “SRE-luc response” value is listed as “anomalous activation of SRE at concentrations above 1 μM; also recorded: little or no activation of SRE at submicromolar concentrations”. The “Efficacy of SRE activation” value in data set [1] (concentrations ≤ 1 μM) is 20–25 % of T0. Further, the Plasma triglycerides entry in the data set on mice is recorded as “elevated plasma triglycerides only at the highest dose”. At LXRα [4], the “Corepressor … to LXRα, ligand effect” value is recorded as “strongly stabilized the corepressor-bound conformation”; the “SMRT2 binding to LXRα, ligand effect” value was “stabilization of SMRT2 corepressor binding to LXRα”. At LXRβ [5], the “NCOR2 binding to LXRβ, ligand effect” value is listed as “weakly destabilized the NCOR2 complex with both LXR isoforms” and the “SMRT2 binding to LXRβ, ligand effect” value is “did not perturb SMRT2 binding to LXRβ”. Also, the “Recruitment of coactivator TRAP220 to LXRα” value on LXRα [7] is given as “very minimal recruitment”. Also, on LXRβ [10], the “NCOR2 displacement from LXRβ in the presence of SRC1 (pCRT)” value was “fully displaced”.
As for `Fc1ccc(-c2c3cccc(C(F)(F)F)c3nn2Cc2ccc(F)cc2Cl)cc1` [LXR-623], the “Plasma TG” value with hamsters is “did not cause a dose-dependent increase in plasma TG”. Further, in the data set with primates, the “Liver TG” value is on record as “significant increase in liver TG was observed but only at high dose”. Further, the Adverse effects result in the data set with participants is listed as “all 6 participants on the highest 300 mg dose reported neurologic or psychiatric adverse effects”.
For the molecule `CCOC(=O)c1ccc(CN(Cc2ccc(-c3cccc(S(C)(=O)=O)c3)cc2)S(=O)(=O)c2c(C)cc(C)cc2C)o1` [SR9238], the “ABCA1-luc response” value in data set [9] (24 hr incubation, normalized to T0 (100%)) is given as “inverse agonist activity in cells”. Further, the “SRE-luc response” value in data set [1] is reported as “anomalous activation of SRE at concentrations above 1 μM; also recorded: lowered SRE activation below baseline; also recorded: neutral or antagonist response; also recorded: inverse agonist at < 3 μM concentration”. Further, in [11], the “Lipogenic gene transcription (SREBF1, FAS, SCD1) by RT-PCR” value is recorded as “reducing lipogenic gene transcription below baseline”. Further, the CRT signature category result with LXR was “IA (inverse agonist (IA))”. Also, the “Effect on 24HC agonism at LXRβ” value on LXRβ [2] (in the presence of 24HC (3 μM)) is on record as “antagonized the agonism of 24HC at LXRβ”. Moreover, the “SRC-1 recruitment to LXRβ, efficacy/potency relative to T0” value at LXRβ [2] (ligand alone, normalized to T0 (100%)) is recorded as “neither ligand stabilized the LXR:SRC1 complex alone”. For the same molecule, in the data set with obese mice on HFD, the “Plasma TG” value is on record as “plasma TG was suppressed”. For the same molecule, the “Hepatic inflammation and fibrosis” value in data set [12] was “significantly reduced hepatic inflammation and fibrosis”. The “Metabolic lability / systemic availability” value in data set [13] is recorded as “metabolically labile”. Moreover, the “Corepressor … to LXRα, ligand effect” value at LXRα [4] is listed as “strong agonist responses”. Moreover, the “Corepressor (NCOR2 and SMRT2) binding to LXRβ, ligand effect” value at LXRβ [5] was “strong agonist responses”. The “Effect on 24HC agonism at LXRα” value at LXRα [6] (in the presence of 24HC (3 μM)) is reported as “without effect on LXRα”. Also, the “SRC-1 recruitment to LXRα, efficacy relative to T0” value on LXRα [6] is recorded as “neither ligand stabilized the LXR:SRC1 complex alone”.
